{
  "source": "patent US20250333745A1",
  "about": "“METHODS AND COMPOSITIONS FOR TREATMENT OF POLYCYSTIC KIDNEY DISEASE” (Regulus Therapeutics Inc., priority 2016, published 2025)",
  "key": {"[1]": {"system": "Pcy mice", "test": "Previous study of tool anti-miR-17 in Pcy mice", "assay_type": "in vivo, mouse", "conditions": "50 mg/kg once weekly for 26 weeks", "method": "Previous studies using a research tool anti-miR-17 compound identified a role for miR-17 in PKD in two different models of PKD, the Pkd2-KO model (also known as the Pkhd1/cre; Pkd2^F/F model) and the Pcy model. The research tool modified oligonucleotide complementary to miR-17 was tested in mouse models of PKD. The anti-miR-17 compound was a fully phosphorothioated oligonucleotide 19 linked nucleosides in length (5′-CTGCACTGTAAGCACTTTG-3′; SEQ ID NO: 7), with DNA, 2′-MOE and S-cEt sugar moieties.\nPcy mice bearing a mutation in Nphp3 spontaneously develop polycystic kidney disease, with a slower progression of disease than that observed in the Pkd2-KO mice. Mice were treated with 50 mg/kg of tool anti-miR-17 compound, or with PBS, once weekly for a total of 26 weeks. The mean ratio of kidney weight to body weight in the Pcy mice treated with anti-miR-17 was 19% lower than the mean ratio of kidney weight to body weight in the Pcy mice administered PBS only (p=0.0003)."}, "[2]": {"test": "In vivo study of research tool compound (proinflammatory effect)", "method": "Further, the research tool compound was not sufficiently efficacious for development as a pharmaceutical agent for the treatment of PKD. Accordingly, a screen was performed to identify inhibitors of one or more miR-17 family members that are sufficiently efficacious, convenient to administer, and safe for administration to subjects with PKD. An additional criterion was a sufficiently high kidney-to-liver delivery ratio, to enhance the proportion of anti-miR-17 compound that is delivered to the target organ."}, "[3]": {"test": "In vitro metabolic stability in human liver lysate", "assay_type": "in vitro ADME", "conditions": "24-hour incubation of RG4326", "method": "(§1) Due to their reduced capacity for serum protein binding, which is a property that drives oligonucleotide distribution in the body, short oligonucleotides are not necessarily expected to have pharmacokinetic properties that make them suitable for use as drugs. RG4326 was incubated in mouse, monkey or human liver homogenate. The identity and concentration of RG4326 and metabolites was determined after a 24-hour incubation. RG4326 and metabolites were extracted using liquid-liquid extraction (LLE) and/or solid-phase extraction (SPE), which were then analyzed for identity and concentration using ion-pairing-reversed-phase high performance liquid chromatography coupled with time-of-flight mass spectrometry (IP—RP-HPLC-TOF)."}, "[4]": {"system": "IFIT3 expression", "test": "Ex vivo liver slice assay", "assay_type": "cell-based", "conditions": "rat liver slice; 24-hour incubation; relative to PBS", "method": "In in vitro assays, the potential for toxicity was assessed using a biochemical fluorescent binding assay (FBA) and a liver or kidney slice assay. The FBA is performed by incubating a fluorescent dye with each compound, and immediately measuring fluorescence. Highly fluorescent compounds have the potential to produce toxicity in vivo. The liver or kidney slice assay is performed by incubating a slice of tissue from a core liver sample isolated from rat. Following a 24-hour incubation, RNA is extracted from the tissue slice, and the expression levels of 18 pro-inflammatory genes are measured. An induction in pro-inflammatory gene expression indicates a potential for pro-inflammatory effects in vivo.\nEx vivo assays were performed with liver or kidney tissue slices. The liver or kidney slice assay is performed by incubating a slice of tissue from a core liver or kidney sample isolated from rat. Following a 24-hour incubation, RNA is extracted from the tissue slice, and the expression levels of 18 pro-inflammatory genes, including IFIT, are measured. A log 2 transformation of the fold change (Log2-FC) relative to PBS treatment was performed. An induction in pro-inflammatory gene expression indicates a potential for pro-inflammatory effects in vivo."}, "[5]": {"test": "Pharmacokinetic profile after three 10 mg/kg subcutaneous injections in C57BL6 and JCK mice", "assay_type": "in vivo, mouse", "conditions": "three 10 mg/kg s.c.; for % Parent: after 21 days", "method": "The pharmacokinetic behavior of RG4326 was further characterized in wild type (C57B16) mice and PKD (JCK) mice. Groups of 5 mice each received three 10 mg/kg subcutaneous injections on each of three consecutive days. At one, four, seven, 14 and 21 days after the third and final injection, mice were sacrificed and plasma, kidney and liver samples were collected. For measurement of RG4326, RG4326 was extracted using liquid-liquid extraction (LLE) and/or solid-phase extraction (SPE), which was then analyzed for identity and concentration using ion-pairing-reversed-phase high performance liquid chromatography coupled with time-of-flight mass spectrometry (IP—RP-HPLC-TOF)."}, "[6]": {"test": "Viscosity", "assay_type": "physicochemical", "conditions": "approximately 150 mg/mL in water at 20° C.", "method": "RG4326 has the following sequence and chemical modification pattern: ASGSCMAFCFUFUMUSGS where nucleosides followed by subscript “M” are 2′-O-methyl nucleosides, nucleosides followed by subscript “F” are 2′-fluoro nucleosides, nucleosides followed by subscript “S” are S-cEt nucleosides, each cytosine is a non-methylated cytosine and all linkages are phosphorothioate linkages. […] Additionally, the viscosity of RG4326 was determined to be 6 cP at a concentration of approximately 150 mg/mL (in water at 20° C.), thus RG4326 in solution is suitable for administration by subcutaneous injection."}, "[7]": {"test": "Metabolic stability in liver homogenate, summary over species", "assay_type": "in vitro ADME", "conditions": "mouse, monkey or human liver homogenate", "method": "as §1"}, "[8]": {"system": "miR-17 targets", "test": "De-repression of miR-17 targets in kidney cell types (PD Signature Score)", "assay_type": "cell-based, mouse", "method": "The ability of RG4326 to de-repress miR-17 targets was also evaluated in additional kidney cell types, derived from the kidneys of both normal and PKD mice. Cells were treated with 30 nM of RG4326 or control oligonucleotide RG5124. After a 24-hour transfection period, cells were collected and RNA was extracted. The mRNA levels of 18 genes targeted by miR-17 were measured, and averaged to provide a pharmacodynamic signature score (PD Signature Score), represented as Log2 fold-change (Log2FC) relative to mock-transfection. […] “P<0.05” indicates a p-value of less than 0.05, as calculated by one-way ANOVA. “NS” indicates a change that is not statistically significant."}, "[9]": {"conditions": "DBA-PKD, Collecting Ducts, PKD kidney"}, "[10]": {"conditions": "DBA-WT, Collecting Ducts, Normal kidney"}, "[11]": {"conditions": "IMCD3, Collecting Ducts, Normal kidney"}, "[12]": {"conditions": "LTL-PKD, Proximal Tubules, PKD kidney"}, "[13]": {"conditions": "LTL-WT, Proximal Tubules, Normal kidney"}, "[14]": {"conditions": "M1, Collecting Ducts, Normal kidney"}, "[15]": {"conditions": "MDCT, Distal Tubules, Normal kidney"}},
  "data": [
    {"molecule": "5′-CTGCACTGTAAGCACTTTG-3′ (all phosphorothioate, sugars by position and methylation of C not given here; DNA, 2'-MOE and S-cEt sugars) [Tool anti-miR-17, reference compound]", "values": [
      {"measurement": "mean ratio of kidney weight to body weight lower than PBS only", "setting": "[1]; p=0.0003", "value": 19, "unit": "%"},
      {"measurement": "mean reduction in cyst index compared to PBS only", "setting": "[1]; p=0.008", "value": 28, "unit": "%"},
      {"measurement": "proinflammatory effect (in words)", "setting": "[2]", "value": "slightly proinflammatory"}
    ]},
    {"molecule": "COC1C(OP(=O)(S)OC[C@H]2O[C@@H](n3cnc4c(N)ncnc43)C(F)C2OP(=O)(S)OC[C@H]2O[C@@H](n3ccc(N)nc3=O)C(F)C2OP(=O)(S)OC[C@H]2O[C@@H](n3ccc(=O)[nH]c3=O)C(F)C2OP(=O)(S)OC[C@H]2O[C@@H](n3ccc(=O)[nH]c3=O)C(OC)C2OP(=O)(S)OC[C@]23O[C@@H](n4ccc(=O)[nH]c4=O)C(O[C@H]2C)C3OP(=O)(S)OC[C@]23O[C@@H](n4cnc5c(=O)[nH]c(N)nc54)C(O[C@H]2C)C3O)[C@@H](COP(=O)(S)OC2C3O[C@@H](C)[C@]2(COP(=O)(S)OC2C4O[C@@H](C)[C@]2(CO)O[C@H]4n2cnc4c(N)ncnc42)O[C@H]3n2cnc3c(=O)[nH]c(N)nc32)O[C@H]1n1ccc(N)nc1=O", "note": "(stereo in doubt) [RG4326, ASGSCMAFCFUFUMUSGS]", "values": [
      {"measurement": "Ex Vivo Liver Lysate (% Analyte), Human", "setting": "[3]", "value": 98.7, "unit": "%"},
      {"measurement": "Ex Vivo Liver Slices Assay IFIT3 expression (Log2-FC)", "setting": "[4]", "value": "1.11 ± 0.32", "unit": "Log2-FC"},
      {"measurement": "AUC0-21 days", "setting": "[5]; Normal C57BL6 mice, Kidney", "value": 282, "unit": "µg·days/g"},
      {"measurement": "C24 h", "setting": "[5]; Normal C57BL6 mice, Kidney", "value": 61.4, "unit": "µg/g"},
      {"measurement": "% Parent", "setting": "[5]; Normal C57BL6 mice, Kidney", "value": ">90", "unit": "%"},
      {"measurement": "AUC0-21 days", "setting": "[5]; Normal C57BL6 mice, Liver", "value": 17, "unit": "µg·days/g"},
      {"measurement": "C24 h", "setting": "[5]; Normal C57BL6 mice, Liver", "value": 1.6, "unit": "µg/g"},
      {"measurement": "% Parent", "setting": "[5]; Normal C57BL6 mice, Liver", "value": ">90", "unit": "%"},
      {"measurement": "K/L Ratio (AUC)", "setting": "[5]; Normal C57BL6 mice", "value": 17},
      {"measurement": "K/L Ratio (C24 h)", "setting": "[5]; Normal C57BL6 mice", "value": 38},
      {"measurement": "AUC0-21 days", "setting": "[5]; PKD JCK mice, Kidney", "value": 497, "unit": "µg·days/g"},
      {"measurement": "C24 h", "setting": "[5]; PKD JCK mice, Kidney", "value": 66.5, "unit": "µg/g"},
      {"measurement": "% Parent", "setting": "[5]; PKD JCK mice, Kidney", "value": ">90", "unit": "%"},
      {"measurement": "AUC0-21 days", "setting": "[5]; PKD JCK mice, Liver", "value": 37, "unit": "µg·days/g"},
      {"measurement": "C24 h", "setting": "[5]; PKD JCK mice, Liver", "value": 5.9, "unit": "µg/g"},
      {"measurement": "% Parent", "setting": "[5]; PKD JCK mice, Liver", "value": ">90", "unit": "%"},
      {"measurement": "K/L Ratio (AUC)", "setting": "[5]; PKD JCK mice", "value": 13},
      {"measurement": "K/L Ratio (C24 h)", "setting": "[5]; PKD JCK mice", "value": 11},
      {"measurement": "parent compound remaining after 21 days", "setting": "[5]; both plasma and tissues, C57B16 and JCK mice", "value": "over 90%"},
      {"measurement": "viscosity", "setting": "[6]", "value": 6, "unit": "cP"},
      {"measurement": "parent compound remaining intact after the 24-hour incubation", "setting": "[7]", "value": "over 95%"},
      {"measurement": "PD-Signature Score (Log2FC @ 30 nM)", "setting": "[8]; [9]", "value": "0.52 ± 0.06; p < 0.05 Log2FC"},
      {"measurement": "PD-Signature Score (Log2FC @ 30 nM)", "setting": "[8]; [10]", "value": "0.40 ± 0.09; p < 0.05 Log2FC"},
      {"measurement": "PD-Signature Score (Log2FC @ 30 nM)", "setting": "[8]; [11]", "value": "0.57 ± 0.06; p < 0.05 Log2FC"},
      {"measurement": "PD-Signature Score (Log2FC @ 30 nM)", "setting": "[8]; [12]", "value": "0.39 ± 0.01; p < 0.05 Log2FC"},
      {"measurement": "PD-Signature Score (Log2FC @ 30 nM)", "setting": "[8]; [13]", "value": "0.35 ± 0.02; p < 0.05 Log2FC"},
      {"measurement": "PD-Signature Score (Log2FC @ 30 nM)", "setting": "[8]; [14]", "value": "0.18 ± 0.18; p < 0.05 Log2FC"},
      {"measurement": "PD-Signature Score (Log2FC @ 30 nM)", "setting": "[8]; [15]", "value": "0.10 ± 0.01; p < 0.05 Log2FC"}
    ]},
    {"molecule": "ASCSAMAFUFGFCMASCS [RG5124, reference compound]", "values": [
      {"measurement": "PD-Signature Score (Log2FC @ 30 nM)", "setting": "[8]; [9]", "value": "−0.07 ± 0.02; ns Log2FC"},
      {"measurement": "PD-Signature Score (Log2FC @ 30 nM)", "setting": "[8]; [10]", "value": "0.10 ± 0.05; ns Log2FC"},
      {"measurement": "PD-Signature Score (Log2FC @ 30 nM)", "setting": "[8]; [11]", "value": "−0.03 ± 0.05; ns Log2FC"},
      {"measurement": "PD-Signature Score (Log2FC @ 30 nM)", "setting": "[8]; [12]", "value": "−0.03 ± 0.04; ns Log2FC"},
      {"measurement": "PD-Signature Score (Log2FC @ 30 nM)", "setting": "[8]; [13]", "value": "−0.04 ± 0.02; ns Log2FC"},
      {"measurement": "PD-Signature Score (Log2FC @ 30 nM)", "setting": "[8]; [14]", "value": "−0.08 ± 0.02; ns Log2FC"},
      {"measurement": "PD-Signature Score (Log2FC @ 30 nM)", "setting": "[8]; [15]", "value": "0.03 ± 0.01; ns Log2FC"}
    ]}
  ]
}
